Each structure is given as a SMILES string.

The target in the test is Mushroom tyrosinase (Agaricus bisporus, UniProt O42713+Q00024+C7FF04+C7FF05). As to the kind of experiment: Inhibition of mushroom tyrosinase […] measured at 60 secs interval for 25 times.
Turning to `O=C(O)c1ccc(-c2ccccc2)cc1`, the 50% inhibitory concentration (IC50) (usually the concentration that inhibits the measured activity by half) was 63.24 µM.
For `COc1ccc(-c2ccc(C(=O)O)cc2)cc1` the value was 15.3 µM; for `O=C(O)c1cccc(-c2ccccc2)c1`, 6.97 µM; for `O=C(O)c1ccccc1-c1ccccc1`, over 100 µM.
Consider `COc1ccc(-c2cccc(C(=O)O)c2)cc1`, for which the half-maximal inhibitory concentration (IC50) amounted to 15.3 µM.
`O=C(O)c1ccccc1-c1ccc(O)cc1` yielded an IC50 of 100.18 µM.
Consider `O=C(O)c1cccc(-c2ccc(O)cc2)c1`, for which the half-inhibitory concentration (IC50) was 10.59 µM.
`COc1ccc(-c2ccccc2C(=O)O)cc1` came in with an IC50 of over 100 µM.
`O=C(O)c1ccc(-c2ccc(O)cc2)cc1` returned an IC50 of 14.7 µM.
